Data published in patent US5707966A, “Antithrombotic agents” (Eli Lilly and Company, priority 1995, dated 1998).
Structures can show the parent of a compound that is named as a salt. Where two headings read alike, the source gives them in different places.

What was measured:
Assay type in all cases: biochemical
[1] = system: Human plasma; assay: Human plasma anticoagulation, prothrombin time (PT); conditions: concentration required to double the PT, linear extrapolation
How it was run: (§1)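 Prolongation of human plasma clotting was measured for PT (thromboplastin reagent), APTT (Actin, 120 s, then 0.02M CaCl2) and TT (bovine thrombin, 10 NIH units/mL). Concentration needed for a doubled time was estimated by linear extrapolation.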

[2] = biological target: T1, factor Xa (Homo sapiens, UniProt P00742); assay: Kass with factor Xa, chromogenic substrate
T1 construct: Human factors X, Xa, IXa, XIa, and XIIa are purchased; purchased Enzyme Research Laboratories, South Bend, Ind

[3] = biological target: T2, t-PA (Homo sapiens, UniProt P00750); assay: Kass with t-PA, chromogenic substrate; conditions: substrate H-D-Ile-Pro-Arg-p-nitroanilide
T2 construct: purchased American Diagnostica, Greenwich, Conn
Description: (§2) By substantially following the procedures described above for human thrombin, and using other human blood coagulation system serine proteases and proteases of the fibrinolytic system with the appropriate chromogenic substrates, identified below, selectivity of the compounds of the present invention with respect to the coagulation factor serine proteases and with respect to the fibrinolytic system serine proteases are evaluated as well as their substantial lack of interference with serine proteases of the fibrinolytic system. Thrombin inhibitors preferably should spare fibrinolysis induced by urokinase, tissue plasminogen activator (t-PA) and streptokinase. This would be important to the therapeutic use of such agents as an adjunct to streptokinase, t-PA or urokinase thrombolytic therapy and to the use of such agents as an endogenous fibrinolysis-sparing (with respect to t-PA and urokinase) antithrombotic agent. In addition to the lack of interference with the amidase activity of the fibrinolytic proteases, such fibrinolytic system sparing can be studied by the use of human plasma clots and their lysis by the respective fibrinolytic plasminogen activators.
(§3) Human plasmin is purchased from Boehringer Mannheim, Indianapolis, Ind.; nt-PA is purchased as single chain activity reference from American Diagnostica, Greenwich, Conn. modified-t-PA6 (mt-PA6) is prepared at Eli Lilly and Company by procedure known in the art (See, Burck, et al., J. Biol. Chem., 265, […] (1990). Plasmin chromogenic substrate H-D-Val-Leu-Lys-p-nitroanilide and tissue plasminogen activator (t-PA) substrate H-D-Ile-Pro-Arg-p-nitroanilide are purchased from Kabi Vitrum, Stockholm, Sweden.

[4] = system: Human plasma; assay: Human plasma anticoagulation, activated partial thromboplastin time (APTT); conditions: concentration required to double the APTT, linear extrapolation
How it was run: as §1

[5] = system: Human plasma; assay: Human plasma anticoagulation, thrombin time (TT); conditions: concentration required to double the thrombin time, linear extrapolation
How it was run: as §1

[6] = biological target: Human Thrombin (Homo sapiens, UniProt P00734); assay: Inhibition of amidase activity of thrombin (Kass)
[7] = biological target: T3, Bovine trypsin (Bos taurus, UniProt P00760); assay: Kass with trypsin, chromogenic substrate
T3 construct: Bovine trypsin is purchased; purchased Worthington Biochemicals, Freehold, N.J
T3 sequence (P00760 24-246): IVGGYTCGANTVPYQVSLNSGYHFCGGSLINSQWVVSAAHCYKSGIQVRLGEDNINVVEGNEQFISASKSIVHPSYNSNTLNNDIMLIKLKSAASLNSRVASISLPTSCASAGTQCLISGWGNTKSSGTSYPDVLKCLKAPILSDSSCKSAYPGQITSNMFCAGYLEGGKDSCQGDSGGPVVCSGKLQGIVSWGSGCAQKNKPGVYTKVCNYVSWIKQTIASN

[8] = biological target: T4, Human plasmin (Homo sapiens, UniProt P00747); assay: Kass with plasmin, chromogenic substrate
T4 construct: Human plasmin is purchased; purchased Boehringer Mannheim, Indianapolis, Ind
Description: as §2, §3

[9] = substrate N-Benzoyl-Ile-Glu-Gly-Arg-p-nitroanilide
[10] = mean over a range of concentrations, […]
[11] = substrate N-Benzoyl-Phe-Val-Arg-p-nitroanilide
[12] = substrate H-D-Val-Leu-Lys-p-nitroanilide

T1 sequence (P00742 235-488 limits assumed): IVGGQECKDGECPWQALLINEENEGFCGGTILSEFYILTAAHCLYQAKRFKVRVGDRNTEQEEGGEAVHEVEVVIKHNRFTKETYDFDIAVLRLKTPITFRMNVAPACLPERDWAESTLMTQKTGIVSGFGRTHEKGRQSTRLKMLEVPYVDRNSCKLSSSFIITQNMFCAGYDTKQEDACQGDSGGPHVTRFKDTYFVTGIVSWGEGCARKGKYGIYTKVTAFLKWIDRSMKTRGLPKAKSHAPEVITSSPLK
T1 sequence (P00742 41-179 partner limits assumed): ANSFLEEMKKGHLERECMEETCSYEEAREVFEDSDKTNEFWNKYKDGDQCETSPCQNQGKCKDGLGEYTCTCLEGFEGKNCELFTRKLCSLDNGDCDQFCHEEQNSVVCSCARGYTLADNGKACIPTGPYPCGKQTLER
T4 sequence (P00747 97-810): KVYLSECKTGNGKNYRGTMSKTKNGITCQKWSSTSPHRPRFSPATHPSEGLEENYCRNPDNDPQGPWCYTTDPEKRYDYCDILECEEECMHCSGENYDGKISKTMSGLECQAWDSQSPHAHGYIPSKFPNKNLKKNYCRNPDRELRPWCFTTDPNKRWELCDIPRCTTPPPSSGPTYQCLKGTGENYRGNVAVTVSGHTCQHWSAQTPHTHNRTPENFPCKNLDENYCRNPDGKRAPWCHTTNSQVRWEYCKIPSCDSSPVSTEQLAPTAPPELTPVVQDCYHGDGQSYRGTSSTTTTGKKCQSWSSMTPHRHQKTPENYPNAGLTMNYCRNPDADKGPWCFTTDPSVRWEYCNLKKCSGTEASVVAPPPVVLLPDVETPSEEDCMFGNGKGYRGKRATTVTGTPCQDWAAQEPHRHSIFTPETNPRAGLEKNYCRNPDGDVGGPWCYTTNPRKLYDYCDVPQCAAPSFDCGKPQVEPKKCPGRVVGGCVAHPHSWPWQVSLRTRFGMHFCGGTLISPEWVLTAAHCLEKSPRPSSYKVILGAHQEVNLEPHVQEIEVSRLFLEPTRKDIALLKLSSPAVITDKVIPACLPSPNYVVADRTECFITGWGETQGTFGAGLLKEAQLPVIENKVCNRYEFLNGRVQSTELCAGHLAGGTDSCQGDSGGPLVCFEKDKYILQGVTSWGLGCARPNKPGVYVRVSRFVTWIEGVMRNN
T4 sequence (P00747 97-580 partner limits assumed): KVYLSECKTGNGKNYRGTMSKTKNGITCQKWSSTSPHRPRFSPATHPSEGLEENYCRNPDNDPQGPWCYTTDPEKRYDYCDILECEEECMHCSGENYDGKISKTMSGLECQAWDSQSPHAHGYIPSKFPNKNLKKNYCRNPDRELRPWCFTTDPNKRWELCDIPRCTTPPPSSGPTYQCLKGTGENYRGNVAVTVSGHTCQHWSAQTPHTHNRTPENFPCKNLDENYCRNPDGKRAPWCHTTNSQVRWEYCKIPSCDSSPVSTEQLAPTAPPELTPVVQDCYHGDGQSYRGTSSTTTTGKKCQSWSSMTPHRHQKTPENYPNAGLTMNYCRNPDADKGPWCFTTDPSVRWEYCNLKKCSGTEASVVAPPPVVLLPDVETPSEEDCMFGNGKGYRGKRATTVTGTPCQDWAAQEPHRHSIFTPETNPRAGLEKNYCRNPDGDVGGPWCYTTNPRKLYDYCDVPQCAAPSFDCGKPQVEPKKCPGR
T2 sequence (P00750 36-562): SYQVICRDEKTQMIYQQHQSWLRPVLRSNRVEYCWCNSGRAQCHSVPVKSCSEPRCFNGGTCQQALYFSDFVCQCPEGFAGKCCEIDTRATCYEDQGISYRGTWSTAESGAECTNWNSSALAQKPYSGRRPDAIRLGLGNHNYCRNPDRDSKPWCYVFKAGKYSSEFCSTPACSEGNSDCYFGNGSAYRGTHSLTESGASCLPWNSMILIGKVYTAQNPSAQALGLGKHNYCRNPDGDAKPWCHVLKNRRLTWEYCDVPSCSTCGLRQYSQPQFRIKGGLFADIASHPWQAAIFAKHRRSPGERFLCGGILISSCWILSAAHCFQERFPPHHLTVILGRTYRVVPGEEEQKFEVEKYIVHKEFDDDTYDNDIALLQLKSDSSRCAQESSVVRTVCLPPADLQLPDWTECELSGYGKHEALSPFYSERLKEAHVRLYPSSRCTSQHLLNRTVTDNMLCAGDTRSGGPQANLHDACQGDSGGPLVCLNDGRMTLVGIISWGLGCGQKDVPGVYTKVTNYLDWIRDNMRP

| Compound | Human Plasma Anticoagulation 2× Clotting time PT [1] | Kass Xa [2, 9] | Kass t-PA [3] | Human Plasma Anticoagulation 2× Clotting time APTT [4] | Human Plasma Anticoagulation 2× Clotting time TT [5] | Kass Human Thrombin [6, 10] | Kass Trypsin [7, 11] | Kass Plasmin [8, 12] | Kass Human Thrombin [6] | Kass Xa [2] | Kass Trypsin [7] | Kass Plasmin [8] |
| --- | --- | --- | --- | --- | --- | --- | --- | --- | --- | --- | --- | --- |
| 1-Piq-Pro-p-NHCH2 C6 H4 C(NH)NH2.2HCl [Example 18] | 170 ng/mL | 0.21 × 10^6 (L/mole) | 0.0094 × 10^6 (L/mole) | 79 ng/mL | 7 ng/mL | 180 × 10^6 (L/mole) | 14 × 10^6 (L/mole) | 0.085 × 10^6 (L/mole) |  |  |  |  |
| N=C(N)c1ccc(CNC(=O)[C@@H]2C[C@@H]3CCCC[C@@H]3N2C(=O)[C@H]2CCCCN2)cc1 (relative stereo) [Example 20, D-hPro-Ohi-p-NHCH2 C6 H4 C(NH)NH2.3HCl] | 600 ng/mL | 0.10 × 10^6 (L/mole) | 0.0077 × 10^6 (L/mole) | 550 ng/mL | 62 ng/mL |  | 19 × 10^6 (L/mole) | 0.10 × 10^6 (L/mole) | 10 |  |  |  |
| CCS(=O)(=O)N[C@@H](C(=O)N1[C@H](C(=O)NCc2ccc(C(=N)N)cc2)C[C@@H]2CCCC[C@@H]21)c1ccccc1 (relative stereo) [Example 44, EtSO2 -Phg-cis-Ohi-p-NHCH2 C6 H4 C(NH)NH2.HCl] | 170 ng/mL |  | 0.04 × 10^6 (L/mole) | 100 ng/mL | 4 ng/mL |  |  |  |  | 0.66 | 2,600 | 1.8 |
| CCS(=O)(=O)N[C@H](Cc1ccccc1)C(=O)N1[C@H](C(=O)NCc2ccc(C(=N)N)cc2)C[C@@H]2CCCC[C@@H]21 (relative stereo) [Example 45, EtSO2 -Phe-cis-Ohi-p-NHCH2 C6 H4 C(NH)NH2.HCl] | 330 ng/mL | 1.5 × 10^6 (L/mole) | 0.77 × 10^6 (L/mole) | 200 ng/mL | 8 ng/mL |  | 110 × 10^6 (L/mole) | 1.1 × 10^6 (L/mole) | 610 |  |  |  |
| N=C(N)c1ccc(CNC(=O)[C@@H]2C[C@@H]3CCCC[C@@H]3N2C(=O)[C@@H](CC2CCCCC2)NCC(=O)O)cc1 (relative stereo) [Example 49, HOOCCH2 -D-Cha-cis-Ohi-p-NHCH2 C6 H4 C(NH)NH2.HCl] | 130 ng/mL | 3.4 × 10^6 (L/mole) | 0.04 × 10^6 (L/mole) | 130 ng/mL | 5 ng/mL |  | 940 × 10^6 (L/mole) | 0.84 × 10^6 (L/mole) | 400 |  |  |  |
| CC(C)CC[C@H]1C[C@@H](C(=O)NCc2ccc(C(=N)N)cc2)N(C(=O)[C@@H](CC2CCCCC2)NCC(=O)O)C1 (relative stereo) [Example 50] | 420 ng/mL | 4.3 × 10^6 (L/mole) | 0.04 × 10^6 (L/mole) | 460 ng/mL | 35 ng/mL | 40 × 10^6 (L/mole) | 2,200 × 10^6 (L/mole) | 1.8 × 10^6 (L/mole) |  |  |  |  |
| N=C(N)c1cccc(CNC(=O)[C@@H]2CCCN2C(=O)[C@H](N)Cc2ccccc2)c1 [Example 16, D-Phe-Pro-m-NHCH2 C6 H4 C(NH)NH2.0.75HCl] | 8,500 ng/mL | 0.0051 × 10^6 (L/mole) | 0.0012 × 10^6 (L/mole) | 8,600 ng/mL | 650 ng/mL | 0.97 × 10^6 (L/mole) | 0.02 × 10^6 (L/mole) | 0.0017 × 10^6 (L/mole) |  |  |  |  |
| N=C(N)c1ccc(CNC(=O)[C@@H]2CCCN2C(=O)[C@H]2C[C@H]3CCCC[C@H]3CN2)cc1 [Example 19, D-3-Piq-Pro-p-NHCH2 C6 H4 C(NH)NH2.3HCl] | 540 ng/mL | 0.14 × 10^6 (L/mole) | 0.0056 × 10^6 (L/mole) | 300 ng/mL | 58 ng/mL |  | 41 × 10^6 (L/mole) | 0.16 × 10^6 (L/mole) |  |  |  |  |
| CCS(=O)(=O)N[C@H](Cc1ccccc1)C(=O)N1CCC[C@H]1C(=O)NCc1cccc(C(=N)N)c1 [Example 24, EtSO2 -D-Phe-Pro-m-NHCH2 --C6 H4 C(=NH)NH2.HCl] | 25,000 ng/mL | < 0.001 × 10^6 (L/mole) | < 0.001 × 10^6 (L/mole) | 25,900 ng/mL | 1,000 ng/mL | 0.78 × 10^6 (L/mole) | 0.03 × 10^6 (L/mole) | < 0.001 × 10^6 (L/mole) |  |  |  |  |
| CCS(=O)(=O)N[C@H](Cc1ccccc1)C(=O)N1CCC[C@H]1C(=O)NCCc1cccc(C(=N)N)c1 [Example 27, EtSO2 -D-Phe-Pro-m-NHCH2 CH2 --C6 H4 C(=NH)NH2.HCl] | 27,000 ng/mL | 0.02 × 10^6 (L/mole) | 0.02 × 10^6 (L/mole) | 27,800 ng/mL | 1,940 ng/mL | 0.29 × 10^6 (L/mole) | 0.02 × 10^6 (L/mole) | < 0.001 × 10^6 (L/mole) |  |  |  |  |
| N=C(N)c1ccc(CCNC(=O)[C@@H]2CCCN2C(=O)[C@@H]2NCC[C@@H]3CCCC[C@@H]32)cc1 [Example 28, 1-Piq-Pro-p-NHCH2 CH2 --C6 H4 C(=NH)NH2.2HCl] | 8,300 ng/mL | 0.01 × 10^6 (L/mole) | < 0.001 × 10^6 (L/mole) | 8,100 ng/mL | 520 ng/mL | 0.95 × 10^6 (L/mole) | 0.11 × 10^6 (L/mole) | < 0.001 × 10^6 (L/mole) |  |  |  |  |
| N=C(N)c1cccc(CCNC(=O)[C@@H]2CCCN2C(=O)[C@@H]2NCC[C@@H]3CCCC[C@@H]32)c1 [Example 29, 1-Piq-Pro-m-NHCH2 CH2 --C6 H4 C(=NH)NH2.2HCl] | 15,800 ng/mL | 0.02 × 10^6 (L/mole) | < 0.001 × 10^6 (L/mole) | 9,800 ng/mL | 750 ng/mL | 0.76 × 10^6 (L/mole) | 0.02 × 10^6 (L/mole) | < 0.001 × 10^6 (L/mole) |  |  |  |  |
| CCS(=O)(=O)N[C@H](Cc1ccccc1)C(=O)N1CCC[C@H]1C(=O)NCCCc1ccc(C(=N)N)cc1 [Example 30, EtSO2 -D-Phe-Pro-p-NHCH2 CH2 CH2 --C6 H4 C(=NH)NH2.HCl] | 14,400 ng/mL | 0.02 × 10^6 (L/mole) | < 0.001 × 10^6 (L/mole) | 14,000 ng/mL | 1,000 ng/mL | 0.55 × 10^6 (L/mole) | 0.03 × 10^6 (L/mole) | < 0.001 × 10^6 (L/mole) |  |  |  |  |
| CCS(=O)(=O)N[C@H](Cc1ccccc1)C(=O)N1CCC[C@H]1C(=O)NCCCc1cccc(C(=N)N)c1 [Example 31, EtSO2 -D-Phe-Pro-m-NHCH2 CH2 CH2 --C6 H4 C(=NH)NH2.HCl] | 30,000 ng/mL | 0.14 × 10^6 (L/mole) | < 0.001 × 10^6 (L/mole) | 34,500 ng/mL | 10,800 ng/mL | 0.07 × 10^6 (L/mole) | 0.05 × 10^6 (L/mole) | < 0.001 × 10^6 (L/mole) |  |  |  |  |
